Read-outs that look alike come from different tables or passages of the source.
Assays:
[1] = target: T1, human recombinant dopamine D4.2 receptor (Homo sapiens, UniProt P21917, DEL265-296); assay: Receptor binding assay, D4.2 dopamine receptor ([3H]spiperone competition, CHO K1 cell membranes)
T1 construct: expressed in transfected cells; host or cells: CHO K1
T1 sequence (P21917 with tags, fused parts or gaps DEL265-296): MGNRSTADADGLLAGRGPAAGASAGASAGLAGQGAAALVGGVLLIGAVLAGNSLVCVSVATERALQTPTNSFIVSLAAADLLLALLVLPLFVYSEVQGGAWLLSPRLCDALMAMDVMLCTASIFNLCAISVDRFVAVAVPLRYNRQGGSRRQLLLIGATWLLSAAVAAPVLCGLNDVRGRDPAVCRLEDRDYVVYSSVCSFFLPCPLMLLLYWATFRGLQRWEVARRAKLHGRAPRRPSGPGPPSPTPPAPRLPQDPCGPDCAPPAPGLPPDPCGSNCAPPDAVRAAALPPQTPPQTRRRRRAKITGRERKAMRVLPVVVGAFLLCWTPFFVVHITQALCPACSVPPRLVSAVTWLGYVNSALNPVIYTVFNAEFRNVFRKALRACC
Text: (§1) A cell line expressing human dopamine D2 (Long form) receptors was purchased from Oregon Health Sciences University, Portland, Oreg. The D2 receptor cDNA was subcloned into an expression vector, pRc/CMV. The plasmids were transfected by electroporation into CHO K1 cells. A single stable transfectant, resistant to the antibiotic G418, was isolated and selected for use in the binding studies. For D4 binding, CHO K1 cells stably transfected to express the human recombinant dopamine D4.2 receptor subtype, as described by Shih, et al., "The expression and functional characterization of human dopamine D4.2 receptor in CHO K1 cells," Soc. Neurosci., 21(Part 1):621 (1995).
(§2) CHO K1 cells expressing either human D2 and D4.2 receptors were grown in 162 cm^2 culture flasks in F12 medium (Gibco Laboratories, Grand Island, N.Y.) supplemented with 10% fetal bovine serum (FBS, Hyclone, Logan, Utah) in an atmosphere of 5% CO2 /95% air at 37° C. Cells were grown until confluent, after which growth medium was removed and replaced with 0.02% ethylene diamine tetracetate (EDTA) in a phosphate-buffered saline solution (Sigma Chemical Co., St. Louis, Mo.) and scraped from the flasks. The cells were centrifuged at about 1000×g for 10 minutes at 40° C. and then resuspended in TEM buffer (25 mM Tris-HCL, pH 7.4, 5 mM EDTA, and 6 mM MgCl2) for D2 or the D4.2 buffer (50 mM Tris-HCl, pH 7.4, 5 mM EDTA, 1.5 mM CaCl2, 5 mM KCl, and 120 mM NaCl) and homogenized. The membranes were pelleted by centrifugation at 20,000×g at 40° C. for 20 minutes. Then the pellets were resuspended in appropriate buffer at 1 mL/flask and stored at -70° C. until used in the receptor binding assay.
(§3) After 60 minutes incubation at 25° C., the incubations were terminated by rapid filtration through Whatmann GF/B glass fibre filters (soaked for 1 hour in 0.5% polyethylenimine) on a -cell harvester, with three washes of 1 mL ice-cold buffer. Individual filter disks containing the bound ligand were placed in counting vials with 4 mL of scintillation fluid (Ready Gel, Beckman Instrument Inc., Fullerton, Calif.) and then counted in a Beckman LS-6800 liquid scintillation counter at an efficiency of 45%. Nonspecific binding was defined in presence of 1 mM of haloperidol.
(§4) Saturation and competition binding data were analyzed using an iterative nonlinear least-square curve-fitting Ligand program. In competition experiments, apparent Ki values were calculated from IC50 values by method of Cheng and Prusoff, "Relationship between the inhibition constant (Ki) and the concentration of inhibitor which causes 50% inhibition (IC50) of an enzymatic reaction," Biochem. Pharmacol., 22:3099-3108 (1973). Experimental compounds were made up as stock solutions in dimethyl sulfoxide (DMSO). […] Each observation was carried out in triplicate. To allow these calculations, Kd values were measured for the interaction of various ligands with the receptor. […]

[2] = target: human dopamine D2 (Long form) receptors (Homo sapiens, UniProt P14416); assay: biochemical; assay type: binding; settings: 0.2 nM [3H]spiperone, CHO K1 membranes, 60 min, 25° C.; apparent Ki from IC50 (Cheng-Prusoff)
Text: as §1, §2, §3, §4

[3] = 0.2 nM [3H]spiperone, CHO K1 membranes, 60 min, 25° C., apparent Ki from IC50 (Cheng-Prusoff), read-out: D4 Ki

human dopamine D2 (Long form) receptors, sequence (P14416 whole entry): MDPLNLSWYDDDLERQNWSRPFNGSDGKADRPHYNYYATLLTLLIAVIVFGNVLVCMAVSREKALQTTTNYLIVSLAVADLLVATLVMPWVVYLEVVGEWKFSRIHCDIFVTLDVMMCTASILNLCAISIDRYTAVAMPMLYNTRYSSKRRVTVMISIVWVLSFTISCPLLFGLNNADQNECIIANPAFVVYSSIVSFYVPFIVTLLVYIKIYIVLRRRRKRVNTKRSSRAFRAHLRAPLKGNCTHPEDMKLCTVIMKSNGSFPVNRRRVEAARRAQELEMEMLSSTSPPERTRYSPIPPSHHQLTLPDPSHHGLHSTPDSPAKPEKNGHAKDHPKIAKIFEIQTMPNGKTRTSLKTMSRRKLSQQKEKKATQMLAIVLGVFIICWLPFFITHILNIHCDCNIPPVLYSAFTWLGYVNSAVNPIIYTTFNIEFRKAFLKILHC

SMILES | Ki [1, 3] [nM] | Ki [2] [nM] | Ki [1] [nM]
FC(F)(F)c1cc(N2CCN(Cc3ccc4ccccc4n3)CC2)ccc1Cl [2-[4-(4-Chloro-3-trifluoromethyl-phenyl)-piperazin-1-ylmethyl]-quinoline] | 122 | – | –
Clc1ccc(N2CCN(Cc3ccc4ccccc4n3)CC2)cc1Cl [2-[4-(3,4-Dichloro-phenyl)-piperazin-1-ylmethyl]-quinoline] | 61 | > 5880 | –
Cc1ccc(N2CCN(Cc3ccc4ccccc4n3)CC2)cc1C [2-[4-(3,4-Dimethyl-phenyl)-piperazin-1-ylmethyl]-quinoline] | 13 | > 5880 | –
Cc1ccc(N2CCN(Cc3ccc4ccccc4n3)CC2)cc1Cl [2-[4-(3-Chloro-4-methyl-phenyl)-piperazin-1-ylmethyl]-quinoline] | 36 | > 5880 | –
N#Cc1ccc(N2CCN(Cc3ccc4ccccc4n3)CC2)cc1Cl [2-chloro-4-(4-quinolin-2-ylmethyl-piperazin-1-yl)-benzonitrile] | – | – | 101
Fc1ccc(C2=CCN(Cc3ccc4ccccc4n3)CC2)cc1 [2-[4-(4-Fluoro-phenyl)-3,6-dihydro-2H-pyridin-1-ylmethyl]-quinoline] | – | 254 | 14.4
COCc1ccc(N2CCN(Cc3ccc4ccccc4n3)CC2)cc1Cl [2-[4-(3-Chloro-4-methoxymethyl-phenyl)-piperazin-1-ylmethyl]-quinoline] | 31.5 | > 5880 | –
OCc1ccc(N2CCN(Cc3ccc4ccccc4n3)CC2)cc1Cl [[2-Chloro-4-(4-quinolin-2-ylmethyl-piperazin-1-yl)-phenyl]-methanol] | 8.27 | > 10000 | –
Clc1cc(Cl)cc(N2CCN(Cc3ccc4ccccc4n3)CC2)c1 [2-[4-(3,5-Dichloro-phenyl)-piperazin-1-ylmethyl]-quinoline] | 121 | – | –
OCc1ccc(N2CCN(Cc3ccc4ccccc4n3)CC2)cc1Br [[2-Bromo-4-(4-quinolin-2-ylmethyl-piperazin-1-yl)-phenyl]-methanol] | 36 | > 5880 | –
COc1ccc(N2CCN(Cc3ccc4ccccc4n3)CC2)cc1 [2-[4-(4-Methoxy-phenyl)-piperazin-1-ylmethyl]-quinoline] | 101 | – | –

Further lines, with some results ahead:

Ki [1, 3] [nM] | Ki [2] [nM] | SMILES | Ki [1] [nM]
139 | > 5880 | OCc1ccc(N2CCN(Cc3ccc4ccccc4n3)CC2)cc1 [[4-(4-Quinolin-2-ylmethyl-piperazin-1-yl)-phenyl]-methanol] | –
13.5 | > 5880 | OCc1ccc(N2CCN(Cc3cnc4ccccc4c3)CC2)cc1Br [[2-Bromo-4-(4-quinolin-3-ylmethyl-piperazin-1-yl)-phenyl]-methanol] | –
87 | – | OCc1ccc(N2CCN(Cc3ccc4ccccc4n3)CC2)cc1F [[2-Fluoro-4-(4-quinolin-2-ylmethyl-piperazin-1-yl)-phenyl]-methanol] | –
57 | 5810 | CCCc1cccc(N2CCN(Cc3ccc4ccccc4n3)CC2)c1 [2-[4-(3-Propyl-phenyl)-piperazin-1-ylmethyl]-quinoline] | –
21 | 2160 | Cc1ccc(N2CCN(Cc3cnc4ccccc4c3)CC2)cc1 [3-(4-p-Tolyl-piperazin-1-ylmethyl)-quinoline] | –
1.55 | 2850 | Cc1ccc(N2CCN(Cc3ccc4ccccc4n3)CC2)cc1 [2-(4-p-Tolyl-piperazin-1-ylmethyl)-quinoline] | –
26 | 1380 | c1ccc(N2CCN(Cc3ccc4ncccc4c3)CC2)cc1 [6-(4-Phenyl-piperazin-1-ylmethyl)-quinoline] | –
8.8 | > 5880 | OCc1ccc(N2CCN(Cc3cnc4ccccc4c3)CC2)cc1F [[2-Fluoro-4-(4-quinolin-3-ylmethyl-piperazin-1-yl)-phenyl]-methanol] | –
127 | – | Cc1cccc(N2CCN(Cc3ccc4ccccc4n3)CC2)c1 [2-(4-m-Tolyl-piperazin-1-ylmethyl)-quinoline] | –
2.72 | > 5880 | Clc1cccc(N2CCN(Cc3ccc4ccccc4n3)CC2)c1 [2-[4-(3-Chloro-phenyl)-piperazin-1-ylmethyl]-quinoline] | –
59.5 | – | Clc1cccc(N2CCN(Cc3ccc4ccccc4n3)CC2)c1Cl [2-[4-(2,3-Dichloro-phenyl)-piperazin-1-ylmethyl]-quinoline] | –
87 | – | O=Cc1ccc(N2CCN(Cc3ccc4ccccc4n3)CC2)cc1Cl [2-Chloro-4-(4-quinolin-2-ylmethyl-piperazin-1-yl)-benzaldehyde] | –
16 | 1790 | c1ccc(N2CCN(Cc3cnc4ccccc4c3)CC2)cc1 [3-(4-Phenyl-piperazin-1-ylmethyl)-quinoline] | –
46 | – | Brc1cccc(N2CCN(Cc3ccc4ccccc4n3)CC2)c1 [2-[4-(3-Bromo-phenyl)-piperazin-1-ylmethyl]-quinoline] | –
29 | 512 | Fc1ccccc1N1CCN(Cc2cnc3ccccc3c2)CC1 [3-[4-(2-Fluoro-phenyl)-piperazin-1-ylmethyl]-quinoline] | –

Reference: patent publication US5945421A, “Dopamine D4 receptor antagonists” (Warner-Lambert Company, priority 1997, dated 1999)
